According to patent US12605453B2, “CP2C-targeting peptide-based anticancer agent” (Industry-University Cooperation Foundation Hanyang …, priority 2019, dated 2026):
*1 amine or outer side, *2 acyl side, *3 side chain or, on linkers, in order; H or OH if unused. Where a SMILES comes first, the peptide text is derived from it. Bridges are numbered along the chain shown (N, C = ends). Roman numbers before positions name the chains, in order. Side-chain parts run from the residue outwards. The star is where a group is joined. γGlu = O=C(O)[C@H](CCC(=O)[*:2])N[*:1]; Palmitoyl = CCCCCCCCCCCCCCCC(=O)*

Experiments:
[1] = test system: various cancer cell lines; test: In vitro anticancer effect of C16 fatty acid-binding peptides in various cancer cells; assay type: cell-based; conditions: for GI50 values compared with control (ACP52C): 48 hours after treatment; for cancer cell-specific cell death: compared with control ACP52C
Protocol: The anticancer effect of the CP2c-targeting peptide-fatty acid conjugate synthesized in Preparation Example 2 was analyzed in various cancer cells.

normal cell line = test: Cell growth analysis in normal cell line; assay type: cell-based
From the text: FIGS. 10a to 10g illustrate cell growth analysis results dependent upon treatment with ACP52CGK (=γC16-ACP52 cm) in normal cell lines (BEAS2B and hMSC) and cancer cell lines (Hep3B, Hs746T, Caov-3, MDA-MB-231, U343, HCT116, PANC1, PC3, A549, and THP-1).

Hep3B xenograft mice = assay type: in vivo
Protocol: To analyze the anticancer efficacy of the CP2c target peptide-fatty acid conjugates synthesized in Preparation Example 2 in animal models, ACP52CG and ACP52CK were injected into the Hep3B xenograft mice via tail vein 5 times at 3-day intervals.
ACP52CGK was injected into the Hep3B xenograft mice via tail vein at 3 different concentrations (1.39, 2.77, or 5.54 mg/kg) 5 times at 3-day intervals. The tumor volume was measured at every three days after drug injection. The tumor and major tissues were excised from the mice sacrificed on the 24th day after the tumor cell injection. The tumor was weighed and fixed with 4% formaldehyde together with major organs. After making tissue slides through paraffin sections, hematoxylin/eosin staining was performed. The collected blood samples were subjected to basic CBC analysis using a Coulter LH 750 hematology analyzer. The acquired data were statistically processed using an Excel program.
ACP52CGK was injected into Hep3B xenograft mice via tail vein 5 times at intervals of 5 days at 3 different concentrations (1.39, 2.77, 5.54 mg/kg), and the anticancer effect was evaluated in the same manner as described above. […] As a result of a comprehensive analysis of all the results, 2.77 mg/kg was the optimal concentration.

[2] = test system: MDA-MB-231 (LM1) xenograft mice; assay type: in vivo; conditions: for anticancer effect: tail vein 5 times at 3-day intervals
Protocol: The anticancer effect of ACP52CGK was analyzed in MDA-MB-231 (LM1) xenograft mice in the same manner as in the Hep3B xenograft mouse model experiments.

[3] = ELISA for antibody formation in sera of injected rabbits (immunogenicity); conditions: rabbit, in vivo
From the text: To verify this, immunogenicity of ACP52CG and ACP52CK was directly tested in the process of deriving the final new drug candidate. Since the final candidate material might be a C-16 palmitoyl acid-conjugated ACP52C peptide, which is not different with ACP52CG and ACP52CK in terms of chemical composition, it was decided to analyze whether antibodies were formed on ACP52CG and ACP52CK. […] Therefore, it was concluded that the final candidate material (ACP52CGK) would also not show immunogenicity in the human body (FIG. 21).

[4] = Repeated toxicity test of ACP52CGK, 28 days, female and male mice; assay type: in vivo, mouse; conditions: 100 mg/kg
Protocol: A repeated toxicity test for the in vivo administration of ACP52CGK was conducted using female and male mice. […] As a full-scale experiment, after intravenous infusion of ACP52CGK for 28 days at 3-day intervals into the solvent group and high-dose group (100 mg/Kg) of 6 males and females each, the weight change, drinking water intake, and main histological analysis of organs, organ weight, hematological tests and blood biochemical tests were analyzed.

[5] = test system: cells primary cultured from PDX (patient derived xenograft) tumor tissue; test: Efficacy in cells primary cultured from PDX tumor tissue; assay type: cell-based
[6] = In vivo half-life by live imaging of Cy5-labeled peptide fluorescence in the mouse body; conditions: whole body (mouse body, live imaging), intravenous
Protocol: To analyze the in vivo half-life of ACP52CGK, Cy5-labeled ACP52CGK was injected into the tail vein of the mouse, and then the fluorescence intensity remaining in the mouse body was measured over time by live imaging process.

[7] = test system: liver cancer induced by DEN treatment; test: Liver cancer mouse model induced by DEN treatment; assay type: in vivo; conditions: for efficacy: mice 15 weeks after DEN treatment
Protocol: In addition, […] (7 to 8 mice/group), such as a control group (mock) treated with only a vehicle, a sorafenib group (an approved drug for liver cancer treatment), and an ACP52CG-GFLGE (SEQ ID NO: 16) (ACP52CK) group. The drug was injected through the tail vein a total of 12 times at a concentration of 5 mg/kg at 3-day intervals.

caspase2 = test: Immunoblot of MDM2p90 and MDM2p60 after caspase2 inhibitor treatment; assay type: cell-based; conditions: lung cancer cells
Protocol: Meanwhile, when a caspase2 inhibitor (AC-VDVAD (SEQ ID NO: 11)-CHO) was treated to identify a phenomenon that occurs due to the high activity of caspase2 specifically in lung cancer cells, it was found by immunoblot that the protein amount of MDM2p90 increased, while the protein amount of MDM2p60 decreased according to the treatment with the Caspase2 inhibitor. Therefore, we concluded that the MDM2p60 form, which is overexpressed in lung cancer cells, is the result of cleavage of MDM2p90 by caspase2. […] As a result, efficacy was observed around GI50˜1 μM in the group treated with the combination of the caspase 2 inhibitor and ACP52C (FIGS. 34a to 34d, FIG. 35).

[8] = tail vein 5 times at 3-day intervals

For `CCCCCCCCCCCCCCCC(=O)N[C@@H](CCC(=O)NCCCC[C@H](NC(=O)CNC(=O)CNC(=O)[C@@H]1CCCN1C(=O)[C@H](CCCNC(=N)N)NC(=O)[C@H](CCC(N)=O)NC(=O)[C@@H]1CCCN1C(=O)[C@H](Cc1ccc(O)cc1)NC(=O)[C@H](CC(N)=O)NC(C)=O)C(=O)NCC(=O)NCC(=O)N[C@@H](CS)C(=O)N[C@@H](CCCNC(=N)N)C(=O)NCC(=O)N[C@@H](CC(=O)O)C(=O)N[C@@H](CCCCN)C(=O)NCC(=O)N1CCC[C@H]1C(=O)N[C@@H](CC(=O)O)C(=O)N[C@@H](CS)C(N)=O)C(=O)O` [ACP52CGK] (Ac-NYPQRPGGK([γGlu-Palmitoyl])GGCRGDKGPDC-NH2), the “GI50 values compared with control (ACP52C)” value [1] was “like or more efficient than that of the control”, the “cancer cell-specific cell death” value [1] was “induced cancer cell-specific cell death similarly to the control group” and the “effect on normal cells” value (normal cell line) was “no significant effect on normal cells”. The “tumor inhibition and metastasis inhibition effects” value (Hep3B xenograft mice; 1.39, 2.77, 5.54 mg/kg, tail vein 5 times at intervals of 5 days) was “tumor inhibition and metastasis inhibition effects superior to the sorafenib and ACP52C treatment groups”, the “tumor metastasis inhibition effect (tumor area metastasized to the lung)” value (Hep3B xenograft mice; 1.39, 2.77, or 5.54 mg/kg, 5 times at 3-day intervals) was “superior to ACP52C in the tumor metastasis inhibition effect” and the tumor suppressive effect (Hep3B xenograft mice; 1.39, 2.77, or 5.54 mg/kg, tail vein 5 times at 3-day intervals) was “tumor suppressive effect similar to that of ACP52C”. For the same compound, the optimal concentration (Hep3B xenograft mice; comprehensive analysis of 3-day and 5-day interval results) was 2.77 mg/kg, the “tumor suppression and metastasis inhibition effects” value ([2]; 1.39, 2.77, or 5.54 mg/kg, 3-day and 5-day intervals) was “superior to those of the sorafenib and ACP52C-treated groups” and the optimal concentration ([2]; mouse, in vivo) was 2.77 mg/kg. The “immune response of sera from rabbits injected with ACP52CG and ACP52CK three times (ELISA)” value (“immune response of sera” below) [3] was “did not induce immune responses”, the “Relative organ weight, Kidney” value ([4]; female mice) was 1.34 ± 0.06% and the “Relative organ weight, Kidney” value ([4]; male mice) was 1.50 ± 0.08%. For the same compound, the “Absolute organ weight, Epididymis” value ([4]; mouse, in vivo) was 0.0482 ± 0.0127 g, the “Absolute organ weight, Ovary” value ([4]; mouse, in vivo) was 0.0059 ± 0.0012 g and the “Absolute organ weight, Testis” value ([4]; mouse, in vivo) was 0.1693 ± 0.0169 g. For the same compound, the “Absolute organ weight, Uterus” value ([4]; mouse, in vivo) was 0.0638 ± 0.0227 g, the “Relative organ weight, Epididymis” value ([4]; mouse, in vivo) was 0.24 ± 0.07% and the “Relative organ weight, Ovary” value ([4]; mouse, in vivo) was 0.0326 ± 0.0054%. For the same compound, the “Relative organ weight, Testis” value ([4]; mouse, in vivo) was 0.83 ± 0.08%, the “Relative organ weight, Uterus” value ([4]; mouse, in vivo) was 0.35 ± 0.12% and the “sensitivity across PDX generations” value ([5]; cells derived from the same origin, each generation) was “not significantly different”. The resistance ([5]; primarily cultured cells from some PDX tumor tissues) was “showed resistance” and the half-life [6] was ~20.2 h.
With `CNC(=O)c1cc(Oc2ccc(NC(=O)Nc3ccc(Cl)c(C(F)(F)F)c3)cc2)ccn1` [sorafenib, reference compound] the “anticancer effect compared to the control group” value ([7]; mice 22 weeks after DEN treatment, 5 mg/kg tail vein 12 times at 3-day intervals) was “significant anticancer effect (p=0.04)”.
For `CCCCCCCCCCCCCCCC(=O)N[C@@H](CCC(=O)O)C(=O)NCCCC[C@H](NC(C)=O)C(=O)NCC(=O)NCC(=O)N[C@@H](CC(N)=O)C(=O)N[C@@H](Cc1ccc(O)cc1)C(=O)N1CCC[C@H]1C(=O)N[C@@H](CCC(N)=O)C(=O)N[C@@H](CCCNC(=N)N)C(=O)N1CCC[C@H]1C(=O)N[C@@H](CS)C(=O)N[C@@H](CCCNC(=N)N)C(=O)NCC(=O)N[C@@H](CC(=O)O)C(=O)N[C@@H](CCCCN)C(=O)NCC(=O)N1CCC[C@H]1C(=O)N[C@@H](CC(=O)O)C(=O)N[C@@H](CS)C(N)=O` [ACP52CG] (Ac-K([Glu-Palmitoyl])GGNYPQRPCRGDKGPDC-NH2), the “GI50 values compared with control (ACP52C)” value [1] was “like or more efficient than that of the control”, the “cancer cell-specific cell death” value [1] was “induced cancer cell-specific cell death similarly to the control group” and the anticancer efficacy (Hep3B xenograft mice; [8]) was “showed similar efficacy to sorafenib, but their efficacy was inferior to that of ACP52C”. For the same compound, the efficacy [7] was “superior to another control, FQI1, but did not show any superior efficacy compared to ACP52C”, the anticancer effect [2] was “showed tumor regression efficacy, but the anticancer effect was not significant” and the “immune response of sera” value [3] was “did not induce immune responses”.
In the case of “AC-VDVAD (SEQ ID NO: 11)-CHO (Ac-VDVAD-aldehyde) [caspase2 inhibitor]”, the “protein amount of MDM2p60” value (caspase2) is reported as “decreased” and the “protein amount of MDM2p90” value (caspase2) is reported as “increased”.
In the case of `CCCCCCCCCCCCCCCC(=O)NCC(=O)N[C@@H](Cc1ccccc1)C(=O)N[C@@H](CC(C)C)C(=O)NCC(=O)N[C@@H](CCC(=O)O)C(=O)NCCCC[C@H](NC(C)=O)C(=O)NCC(=O)NCC(=O)N[C@@H](CC(N)=O)C(=O)N[C@@H](Cc1ccc(O)cc1)C(=O)N1CCC[C@H]1C(=O)N[C@@H](CCC(N)=O)C(=O)N[C@@H](CCCNC(=N)N)C(=O)N1CCC[C@H]1C(=O)N[C@@H](CS)C(=O)N[C@@H](CCCNC(=N)N)C(=O)NCC(=O)N[C@@H](CC(=O)O)C(=O)N[C@@H](CCCCN)C(=O)NCC(=O)N1CCC[C@H]1C(=O)N[C@@H](CC(=O)O)C(=O)N[C@@H](CS)C(N)=O` [ACP52CK] (I: Ac-KGGNYPQRPCRGDKGPDC-NH2 / II: Palmitoyl-GFLGE; amide I:1-II:C), the “GI50 values compared with control (ACP52C)” value [1] is reported as “like or more efficient than that of the control”, the “cancer cell-specific cell death” value [1] is reported as “induced cancer cell-specific cell death similarly to the control group” and the anticancer efficacy (Hep3B xenograft mice; [8]) is reported as “showed similar efficacy to sorafenib, but their efficacy was inferior to that of ACP52C”. For the same compound, the efficacy [7] was “superior to another control, FQI1, but did not show any superior efficacy compared to ACP52C”, the anticancer effect [2] was “showed tumor regression efficacy, but the anticancer effect was not significant” and the “immune response of sera” value [3] was “did not induce immune responses”.
